Measurements: ChEMBL document CHEMBL3112546, “Synthetic α-(aminomethyl)-γ-butyrolactones and their anti-pancreatic cancer activities” (2013)
Counter-ions that a name gives are not always drawn. Active and inactive are the calls of the source. The rule behind the calls is not given here.

Legend:
[1] = Antiproliferative activity against human BxPC3 cells assessed as cell growth at 10 uM after 72 hrs by CellTitre assay relative to control; format: functional; settings: BXPC-3, 72 h, read-out: Activity
[2] = Antiproliferative activity against human MIAPaCa2 cells assessed as cell growth at 10 uM after 72 hrs by CellTitre assay relative to control; format: functional; settings: MIA PaCa-2, 72 h, read-out: Activity
[3] = Antiproliferative activity against human PANC1 cells assessed as cell growth at 10 uM after 72 hrs by CellTitre assay relative to control; format: functional; settings: PANC-1, 72 h, read-out: Activity
PANC-1 = test: Antiproliferative activity against human PANC1 cells assessed as cell growth at >100 uM after 72 hrs by CellTitre assay relative to control; format: functional, cell-based

CN(C)C[C@H]1C(=O)O[C@@H](c2ccccc2)[C@@H]1c1ccccc1 (racemic)
growth at 10 µM [1]: 0%
growth at 10 µM [2]: 1%
growth at 10 µM [3]: 0%

CCN(CC)C[C@@H]1C(=O)O[C@H](c2ccccc2)[C@@H]1c1ccccc1 (racemic)
growth at 10 µM [1]: 1%
growth at 10 µM [2]: 17%
growth at 10 µM [3]: 42%

CN(C)C[C@@H]1C(=O)O[C@H](c2ccccc2)[C@@H]1c1ccccc1 (racemic)
growth at 10 µM [1]: 1%
growth at 10 µM [2]: 9%
growth at 10 µM [3]: 30%

O=C1O[C@@H](c2ccccc2)[C@H](c2ccccc2)[C@H]1CN1CCOCC1 (racemic)
growth at 10 µM [1]: 9%
growth at 10 µM [2]: 10%
growth at 10 µM [3]: 16%

O=C1O[C@H](c2ccccc2)[C@H](c2ccccc2)[C@@H]1CN1CCCC1 (racemic)
growth at 10 µM [1]: 0%
growth at 10 µM [2]: 17%
growth at 10 µM [3]: 11%

C=C1C(=O)O[C@@H](c2ccccc2)[C@@H]1c1ccccc1 (racemic)
growth at 10 µM [1]: 1%
growth at 10 µM [2]: 1%
growth at 10 µM [3]: 1%

O=C1O[C@H](c2ccccc2)[C@H](c2ccccc2)[C@@H]1CN1CCCCC1 (racemic)
growth at 10 µM [1]: 3%
growth at 10 µM [2]: 11%
growth at 10 µM [3]: 8%

C/C1=C\CC[C@@]2(C)O[C@@H]2[C@H]2OC(=O)[C@@H](CN(C)C)[C@@H]2CC1 [(DIMETHYLAMINO)PARTHENOLIDE FUMARIC ACID SALT]
growth at 10 µM [1]: 7%
growth at 10 µM [2]: 2%
growth at 10 µM [3]: 17%

O=C1O[C@H](c2ccccc2)[C@H](c2ccccc2)[C@@H]1CN(Cc1ccccc1)Cc1ccccc1 (racemic)
growth at 10 µM [1]: 34%
growth at 10 µM [2]: 33%
growth at 10 µM [3]: 75%

O=C1O[C@@H](c2ccccc2)[C@H](c2ccccc2)[C@H]1CN1CCCC1 (racemic)
growth at 10 µM [1]: 0%
growth at 10 µM [2]: 1%
growth at 10 µM [3]: 3%

O=C1O[C@H](c2ccccc2)[C@H](c2ccccc2)[C@@H]1CN1CCOCC1 (racemic)
growth at 10 µM [1]: 6%
growth at 10 µM [2]: 13%
growth at 10 µM [3]: 19%

C=C1C(=O)O[C@H](c2ccccc2)[C@@H]1c1ccccc1 (racemic)
growth at 10 µM [1]: 8%
growth at 10 µM [2]: 3%
growth at 10 µM [3]: 38%

O=C1O[C@@H](c2ccccc2)[C@H](c2ccccc2)[C@H]1CN(Cc1ccccc1)Cc1ccccc1 (racemic)
Activity (PANC-1): inactive
growth at 10 µM [1]: 50%
growth at 10 µM [2]: 35%

O=C1O[C@@H](c2ccccc2)[C@H](c2ccccc2)[C@H]1CN1CCCCC1 (racemic)
growth at 10 µM [1]: 1%
growth at 10 µM [2]: 1%
growth at 10 µM [3]: 1%

O=C1O[C@@H](c2ccccc2)[C@H](c2ccccc2)[C@H]1CN(Cc1ccccc1)C(=O)c1ccccc1 (racemic)
Activity (PANC-1): inactive
growth at 10 µM [1]: 81%
growth at 10 µM [2]: 92%

CCN(CC)C[C@H]1C(=O)O[C@@H](c2ccccc2)[C@@H]1c1ccccc1 (racemic)
growth at 10 µM [1]: 0%
growth at 10 µM [2]: 1%
growth at 10 µM [3]: 1%

C=C1C(=O)O[C@@H]2[C@H]3O[C@]3(C)CC/C=C(\C)CC[C@@H]12
growth at 10 µM [1]: 6%
growth at 10 µM [2]: 3%
growth at 10 µM [3]: 12%
